Laboratory results from PubChem BioAssay (NCI).
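Exposure lasted 48 hours, with cells grown in 96-well plates and compounds tested at five concentrations. At the GI50, growth is halved. Definition used: TGI = concentration required for complete inhibition of growth.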

Experiments:
Assay in all cases: DTP human tumour cell line panel, 48 h
[1] = test system: SK-OV-3 ovarian
[2] = test system: A549 NSCLC
[3] = test system: NCI-H460 lung
[4] = test system: A498 renal
[5] = test system: SK-MEL-28 melanoma
[6] = test system: TK-10 renal
[7] = test system: U251 CNS
[8] = test system: SR leukemia
[9] = test system: HT29 colon
[10] = test system: SNB-75 CNS
[11] = test system: MOLT-4 leukemia
[12] = test system: OVCAR-4 ovarian
[13] = test system: SF-295 CNS
[14] = test system: NCI-H23 lung
[15] = test system: K-562 leukemia
[16] = test system: UACC-62 melanoma
[17] = test system: MCF7 breast
[18] = test system: HCT-15 colon
[19] = test system: OVCAR-3 ovarian
[20] = test system: OVCAR-5 ovarian
[21] = test system: UACC-257 melanoma
[22] = test system: HCC-2998 colon
[23] = test system: COLO 205 colon
[24] = test system: KM12 colon
[25] = test system: EKVX NSCLC
[26] = test system: MDA-MB-231 breast
[27] = test system: PC-3 prostate
[28] = test system: RPMI-8226 leukemia
[29] = test system: HCT-116 colon
[30] = test system: HOP-62 NSCLC
[31] = test system: DU-145 prostate
[32] = test system: HOP-92 NSCLC
[33] = test system: SK-MEL-2 melanoma
[34] = test system: NCI-H226 lung
[35] = test system: MALME-3M melanoma
[36] = test system: 786-0 renal
[37] = test system: SNB-19 CNS
[38] = test system: RXF 393 renal
[39] = test system: HL-60(TB) leukemia
[40] = test system: IGROV1 ovarian
[41] = test system: SW-620 colon
[42] = test system: T-47D breast
[43] = test system: MDA-MB-468 breast
[44] = test system: UO-31 renal
[45] = test system: M14 melanoma
[46] = test system: OVCAR-8 ovarian
[47] = test system: NCI-H522 lung
[48] = test system: CAKI-1 renal
[49] = test system: ACHN renal
[50] = test system: SF-268 CNS
[51] = test system: LOX IMVI melanoma
[52] = test system: SF-539 CNS
[53] = test system: SK-MEL-5 melanoma
[54] = test system: HS 578T breast
[55] = test system: BT-549 breast
[56] = test system: MDA-MB-435
[57] = test system: SN12C renal
[58] = test system: CCRF-CEM leukemia

COc1ccc([C@H]2C(C(=O)c3ccc(Cl)cc3)C3(N[C@@H]2c2ccccc2)C(=O)Nc2ccc(Cl)cc23)cc1 (stereo partly specified)
GI50 [1]: 11.5 µM | TGI [1]: 38.4 µM | GI50 [2]: 2.4 µM | TGI [2]: 13.7 µM | GI50 [3]: 2.5 µM | TGI [3]: 9.26 µM | GI50 [4]: 8.68 µM | TGI [4]: 22.4 µM | GI50 [5]: 6.47 µM | TGI [5]: 13.6 µM | GI50 [6]: 7.42 µM | TGI [6]: 19.8 µM | GI50 [7]: 5.5 µM | TGI [7]: 13 µM | GI50 [8]: 2.08 µM | TGI [8]: 20.5 µM | GI50 [9]: 2.2 µM | TGI [9]: 8.71 µM | GI50 [10]: 2.82 µM | TGI [10]: 27.2 µM | GI50 [11]: 1.95 µM | TGI [11]: 56.6 µM | GI50 [12]: 5.77 µM | TGI [12]: 27.1 µM | GI50 [13]: 3.08 µM | TGI [13]: 13.1 µM | GI50 [14]: 6.19 µM | TGI [14]: 16.2 µM | GI50 [15]: 2.31 µM | TGI [15]: 57.5 µM | GI50 [16]: 2.13 µM | TGI [16]: 9.36 µM | GI50 [17]: 1.91 µM | TGI [17]: 13.1 µM | GI50 [18]: 3.86 µM | TGI [18]: 12.7 µM | GI50 [19]: 6.39 µM | TGI [19]: 23.1 µM | GI50 [20]: 6.48 µM | TGI [20]: 14.1 µM | GI50 [21]: 6.69 µM | TGI [21]: 18.6 µM | GI50 [22]: 2.09 µM | TGI [22]: 8.15 µM | GI50 [23]: 6.72 µM | TGI [23]: 14.5 µM | GI50 [24]: 2.44 µM | TGI [24]: 12.8 µM | GI50 [25]: 6.43 µM | TGI [25]: 30.7 µM | GI50 [26]: 4.87 µM | TGI [26]: 12.2 µM | GI50 [27]: 1.99 µM | TGI [27]: 10.6 µM | GI50 [28]: 3.62 µM | TGI [28]: 48 µM | GI50 [29]: 2.62 µM | TGI [29]: 10.5 µM | GI50 [30]: 6.75 µM | TGI [30]: 14.5 µM | GI50 [31]: 7.91 µM | TGI [31]: 27 µM | GI50 [32]: 2.38 µM | TGI [32]: 10.7 µM | GI50 [33]: 6.16 µM | TGI [33]: 13.4 µM | GI50 [34]: 6.64 µM | TGI [34]: 14.8 µM | GI50 [35]: 8.38 µM | TGI [35]: 16.1 µM | GI50 [36]: 5.11 µM | TGI [36]: 20 µM | GI50 [37]: 6.5 µM | TGI [37]: 46.5 µM | GI50 [38]: 2.93 µM | TGI [38]: 12 µM | GI50 [39]: 4.1 µM | TGI [39]: 22.2 µM | GI50 [40]: 3.54 µM | TGI [40]: 13.7 µM | GI50 [41]: 5.33 µM | TGI [41]: 21.5 µM | GI50 [42]: 2.61 µM | TGI [42]: 13.4 µM | GI50 [43]: 7.07 µM | TGI [43]: 19.8 µM | GI50 [44]: 1.74 µM | TGI [44]: 10.8 µM | GI50 [45]: 2.99 µM | TGI [45]: 12.7 µM | GI50 [46]: 4.98 µM | TGI [46]: 14 µM | GI50 [47]: 5.24 µM | TGI [47]: 14.3 µM | GI50 [48]: 1.53 µM | TGI [48]: 15.1 µM | GI50 [49]: 2.32 µM | TGI [49]: 17.9 µM | GI50 [50]: 3.21 µM | TGI [50]: 38 µM | GI50 [51]: 2.75 µM | TGI [51]: 14 µM | GI50 [52]: 7.28 µM | TGI [52]: 16.6 µM | GI50 [53]: 9.38 µM | TGI [53]: 17.9 µM | GI50 [54]: 7.49 µM | TGI [54]: 24.9 µM | GI50 [55]: 6.91 µM | TGI [55]: 14.6 µM | GI50 [56]: 4.02 µM | TGI [56]: 14.5 µM | GI50 [57]: 3 µM | TGI [57]: 10.4 µM | GI50 [58]: 3.32 µM | TGI [58]: 25.1 µM
